The test system of series [1] is L1210 cells. The experiment in a line: Cell volume of L1210 cells (Channelyzer). The class given is cell-based, murine. The note with it: growth inhibition. The protocol:
(§1) Cells were grown at 37° C. for designated times in tightly stoppered flasks and cell density was determined as indicated above. Cell volume distribution was monitored with a C1000 Channelyzer with standard size latex particles (Coulter) as reference. The results are expressed as growth fraction (N--No/No) or as percent growth fraction compared to appropriate controls.
(To obtain the data in FIG. 5, the cells were incubated with S-(methylthio)-L-homocysteine 15 μM, (curve .smallcircle.--.smallcircle.) and 30 μM (curve -- )together with their corresponding concentrations of copper sulfate). […] To obtain the data in FIG. 6, the cells were incubated for 14 hours in the medium described in the above section entitled Growth And Its Inhibition In Cell Culture, but containing only 1 mM glutamine, 1/2 the normal concentration. […] At the end of the incubation, the cell density in the inhibited culture was determined, and &he entire population centrifuged for analysis. An aliquot containing an equal number of cells from the control culture was removed for comparison, and both samples processed and analyzed as described in the above section entitled Analysis of Nucleoside Triphosphate Pools. […]
To obtain the data in FIG. 7, cells were incubated under standard conditions with S-(methylthio)-L -homocysteine and copper sulfate, each 15 μM, and cell volume monitored during the course of the incubation. […]

The test system of series [2] is L1210 cells. In words: Inhibition of growth of L1210 cells in culture (growth fraction). Format: cell-based, murine. The settings on record: for stereospecificity result with 10 μM copper sulfate: 10 μM instead of 50 μM copper; for potentiation of SMETH by other metal ions: 10 μM; for protection from growth inhibition by copper-SMETH: copper-SMETH 15 and 30 μM; for IC50: potentiation of growth inhibition by DL-SMETH 75 or 100 μM, estimated by interpolation, read-out: Conc. for 50% further inhibition; for activity at 50 µM: L1210, L-SMETH 50 μM, read-out: growth (percent of control). Here is the method:
Cytotoxicity of SMETH was assessed as follows. Cells were harvested at mid-log phase (8-10×10^5 cells/ml) washed with fresh growth medium and resuspended at 1×10^5 cells per ml as determined by a model ZBI Coulter Counter (Coulter Electronics, Hialeah, Fla.). Suspensions (7 ml) were added to 25 cm^2 Corning flasks, and SMETH, 20 mM in water, with or without copper sulfate, 2 mM in water were added as dilutions in water at no greater than 10 μl/ml of the cell suspension.
as §1
(The cells also were incubated for 40 hours).
1 with S-(methylthio)-DL-homocysteine DL-SMETH, (See curve .smallcircle.--.smallcircle. in FIG. 4) and with the pure L-enantiomorph, L-SMETH, (See curve -- in FIG. 4).

For series [3], the system named is L1210 cells in primary culture. In words: Growth of L1210 cells in primary culture (obtained directly from the mouse) with copper. Format: cell-based. Here is the method:
(The cells also were incubated for 40 hours). (See FIG. 3 of Mohindru, A., Fisher, J. M., and Rabinovitz, M. "2,9-Dimethyl-1,10-phenanthroline (neocuproine): A Potent, Copper-dependent Cytotoxin With Anti-tumor Activity.)" A concentration of 10 μM was more than adequate as a potentiating dose, but at this concentration other metal ions (Zn^++, Mn^++, CO^++, Ni^++, Cr^+++) were ineffective. […] Such cells fail to grow unless supplemented with an appropriate mercaptan or disulfide (See curve .smallcircle.--.smallcircle. in FIG. 3). […] Thus, both the organic and inorganic moieties of this invention show high specificity in this inhibition.

Series [4] has as its system methionine metabolism. The settings on record: via its adenosyl derivative; cited from earlier work.
The subject of series [5] is endothelial cell. The settings on record: via copper catalyzed hydrogen peroxide generation; cited from earlier work.
Series [6] concerns lymphoblasts. The settings on record: with added adenosine and deoxycoformycin; cited from earlier work.
The subject of series [7] is cellular methylations. The settings on record: cited from earlier work.
For series [8], the system named is purine biosynthesis. The settings on record: literature; cited from earlier work.
The conditions of series [9]: Cecil and McPhee; cited from earlier work.

Read-outs that look alike come from different tables or passages of the source. Bounds are passed on as bounds.

As to `CSSCCC(N)C(=O)O` (racemic) [DL-SMETH, S-(methylthio)-DL-homocysteine], the “cell volume change over a two day period” value in series [1] is on record as “progressive increase in cell volume”. In addition, in [2], the “inhibition of cellular proliferation” value is on record as “potent inhibitor of cellular proliferation” and the “stereospecificity result with 10 μM copper sulfate” value was “nearly identical results”. Also, in series [2] (40 hours, copper ion present), the “range of inhibitory concentration of SMETH with copper ion” value is “both reduced and narrowed in the presence of copper ion”. In [2] (DL-SMETH 75 μm alone), this compound displayed a percent inhibition of 46%. In series [2] (DL-SMETH 75 μm plus adenosine 10 μm, deoxycoformycin 20 μm), the percent inhibition was 46%. In [2] (Mus musculus, L1210, 40 hours, without copper, read-out: threshold level), the minimal effective concentration turned out to be 25 µM. Further, the “cytotoxicity to L1210 cells” value in [2] (alone, 40 hours) was “cytotoxic to L1210 cells in culture when present at a broad range of micromolar concentrations”. Besides, in [2] (copper ion 50 μM), the “relative activity of racemic form (vs D-SMETH as printed)” value was “half as active as D-SMETH”. For the same compound, the “effect of copper ion on inhibition by SMETH” value in [2] (threshold SMETH 25 μM with micromolar copper ion, 40 hours) is “completely inhibitory concentration”.
Regarding `CSSC[C@H](N)C(=O)O` [4-thiamethionine, S-(methylthio)-L-cysteine], in series [3] (4TM 50 μM), the “growth support with copper ion” value is listed as “supported growth which was independent of copper ion concentration”. In series [3] (L1210 primary culture), the “cytotoxicity in the presence of copper” value is listed as “not cytotoxic in the presence of copper” and the “protection from growth inhibition by copper” value is “protected L1210 cells in primary culture from growth inhibition by copper”.
With `Nc1ncnc2c1ncn2[C@@H]1O[C@H](CO)[C@@H](O)[C@H]1O` [Adenosine], the toxicity of adenosine result in [2] (10 μM alone) is “not toxic to L1210 cells”. In addition, the “toxicity of adenosine with L-homocysteinethiolactone” value in series [2] (10 μM with non-toxic concentration of L-homocysteinethiolactone) is reported as “toxic when added together with a non-toxic concentration of L-homocysteinethiolactone”. Further, the “effect of adenosine on SMETH potency” value in series [2] (toxic dose of SMETH) is on record as “did not increase the potency of a toxic dose of SMETH”.
With `[Co+2]` [CO^++], the “potentiation of SMETH by other metal ions” value (“potentiation of SMETH” for short) in series [2] is “ineffective”.
On the same count and under the same terms, the entry for `[Cr+3]` [Cr^+++] is “ineffective”.
Regarding `Nc1ccn([C@@H]2O[C@H](CO)[C@@H](O)[C@H]2O)c(=O)n1` [Cytidine], the “protection from growth inhibition by copper-SMETH” value in [2] was “protected the cells from growth inhibition, and this protection was non-competitive”.
`CSSCC[C@@H](N)C(=O)O` [D-SMETH]: the “activity of D-SMETH” value in series [2] (50 μM with 50 μM copper ion) is “completely inactive”.
Regarding `NC(=O)CC[C@H](N)C(=O)O` [Glutamine], the “protection against SMETH and SMETH plus Cu++” value in [2] (glutamine, millimolar concentrations) was “protected cells against SMETH and SMETH plug Cu^++”.
For the compound `N[C@@H](CCS)C(=O)O` [Homocysteine], the “toxicity by blocking methionine metabolism” value in [4] was “toxic by blocking methionine metabolism”. The endothelial cell damage result in series [5] is recorded as “promote endothelial cell damage”.
For `OCCSSCCO` [Hydroxyethyl Disulfide (HEDS), Hydroxyethyl Disulfide], the “growth promotion and its inhibition by copper” value in series [3] (high copper concentrations) is “promoted growth, but this was inhibited by high copper concentrations”.
For `N[C@H]1CCSC1=O` [L-Homocysteine Thiolactone], the growth block entry in series [6] is recorded as “can block growth”. In addition, the percent inhibition in series [2] (L-homocysteine thiolactone 200 μM plus adenosine 10 μM, deoxycoformycin 20 μM) was found to be 39%. Besides, the inhibition (in general, the change of the read-out against control, counted positive when it falls) at 200 µM in series [2] (Mus musculus, L1210, L-homocysteine thiolactone 200 μM alone, read-out: percent inhibition) came out at 5%.
For `CC(C)C[C@H](N)C(=O)O` [L-Leucine], the IC50 in series [2] is 1000 µM.
The same measure, in the same setting: the figure for `CSCC[C@H](N)C(=O)O` [L-Methionine] is 2000 µM; for `CCCC[C@H](N)C(=O)O` [L-Norleucine] it is 2500 µM.
Consider `CSSCC[C@H](N)C(=O)O` [L-SMETH, S-(methylthio)-L-homocysteine], for which the “stereospecificity result with 10 μM copper sulfate” value in [2] was “nearly identical results”. For the same compound, the activity at 50 µM in series [2] (Mus musculus, glutamine 0.5 mM) is 15%; in series [2] (Mus musculus, glutamine 1.0 mM), 31%; in [2] (Mus musculus, glutamine 2.0 mM), 58%; in [2] (Mus musculus, glutamine 4.0 mM), 98%.
In the case of `[Mn+2]` [Mn^++], in series [2], the “potentiation of SMETH” value was “ineffective”.
On the same count and under the same terms, the entry for `[Ni+2]` [Ni^++] is “ineffective”.
`CCSC[C@H](N)C(=O)O` [S-Ethyl-L-cysteine]: the IC50 in series [2] was 1000 µM.
For `Nc1ncnc2c1ncn2[C@@H]1O[C@H](CSCC[C@H](N)C(=O)O)[C@@H](O)[C@H]1O` [S-adenosylhomocysteine], the “inhibition of cellular methylations” value in series [7] is “potent inhibitor of cellular methylations”; in series [7] (listed as Adenosylhomocysteine), “potent inhibitor of cellular methylation processes”.
`O=c1ccn([C@@H]2O[C@H](CO)[C@@H](O)[C@H]2O)c(=O)[nH]1` [Uridine]: the “protection from growth inhibition by copper-SMETH” value in series [2] was “ineffective in such protection”.
Regarding `[Zn+2]` [Zn^++], the “potentiation of SMETH” value in series [2] was “ineffective”.
As for `N[C@H](C(=O)O)[C@@H]1CC(Cl)=NO1` [acivicin, (alphaS,5S)-alpha-amino-3-chloro-4,5-dihydro-5-isoxazoleacetizacid], the “sites blocked in purine biosynthesis” value in series [8] is given as “also block some sites in purine biosynthesis”.
As to `[N-]=[N+]=CC(=O)OC[C@H](N)C(=O)O` [azaserine], the “sites blocked in purine biosynthesis” value in series [8] was “also block some sites in purine biosynthesis”.
With `O=S(=O)([O-])[O-].[Cu+2]` [copper ion, copper sulfate], in series [2] (copper ion alone, at much higher levels than micromolar potentiating levels), the “toxicity of the ion itself” value is “non -toxic itself at much higher levels”. The “potentiating dose of copper ion” value in [2] (with SMETH, 40 hours, "more than adequate") was at most 10 µM.
On to `[N-]=[N+]=CC(=O)CC[C@H](N)C(=O)O` [diazo-oxo-norleucine, 6-diazo-5-oxo-norleucine], for which the “sites blocked in purine biosynthesis” value in series [8] was “also block some sites in purine biosynthesis”.
For `Nc1nc2c(ncn2[C@@H]2O[C@H](CO)[C@@H](O)[C@H]2O)c(=O)[nH]1` [guanosine], the “protection from growth inhibition by copper-SMETH” value in [2] was “ineffective in such protection”.
As for `N[C@@H](CCSSCC[C@H](N)C(=O)O)C(=O)O` [homocystine], the “rate of reaction with silver ion relative to cystine” value in series [9] is given as 267 times.
In the case of DL-Isopropionine, in series [2], the IC50 was 2000 µM.

Source of the values: patent US5124351A, “Pharmaceutical compositions for the treatment of cancers susceptible to treatment with the copper complex of S-(methylthio)-DL-homocysteine or the L-enantimorph thereof” (The United States of America as represented by the …, priority 1989, dated 1992).
